Activity calls are given as the source filed them. The rule behind the calls is not given here.
Tests used:
Salmonella typhimurium [1] = assay: Effect on viability of Salmonella enterica serovar Typhimurium 4/74 at 100 uM after 4 hrs; format: functional, organism-based; conditions: Salmonella enterica subsp. enterica serovar Typhimurium
[2] = tested on: Salmonella enterica subsp. enterica serovar Typhimurium; assay: Inhibition of T3SS-1-mediated secretion of SipC protein in Salmonella enterica serovar Typhimurium 4/74 after 4 hrs by SDS-PAGE
Salmonella typhimurium [3] = assay: Reduction of Salmonella enterica serovar Typhimurium 4/74 invasion of human HeLa cells preincubated at 100 uM for 1 hr relative to control; format: functional, Salmonella enterica subsp. enterica serovar Typhimurium; design: scale not given: the % may be the effect or the level left
[4] = tested on: Salmonella enterica subsp. enterica serovar Typhimurium; assay: Inhibition of T3SS-1-mediated secretion of SipA protein in Salmonella enterica serovar Typhimurium 4/74 after 4 hrs by SDS-PAGE
Salmonella typhimurium [5] = assay: Suppression of 1.5 hrs 100 uM pretreated Salmonella enterica serovar Typhimurium 4/74 infection-induced inflammatory response in Friesian bull intestinal ligated loop model assessed as polymorphonuclear leucocyte influx; format: functional, organism-based; conditions: Salmonella enterica subsp. enterica serovar Typhimurium
[6] = tested on: Salmonella enterica subsp. enterica serovar Typhimurium; assay: Inhibition of T3SS-1 associated virulence phenotype in 1.5 hrs 100 uM pretreated Salmonella enterica serovar Typhimurium 4/74 assessed as reduction of contact dependent hemolysis of sheep erythrocytes relative to wild-type
[7] = tested on: Salmonella enterica subsp. enterica serovar Typhimurium; assay: Inhibition of T3SS-1-mediated secretion of SopE protein in Salmonella enterica serovar Typhimurium 4/74 at 100 uM after 4 hrs by SDS-PAGE
Salmonella typhimurium [8] = assay: Suppression of 1.5 hrs 100 uM pretreated Salmonella enterica serovar Typhimurium 4/74 infection-induced intestinal secretory response in Friesian bull intestinal ligated loop model; format: functional, organism-based; conditions: Salmonella enterica subsp. enterica serovar Typhimurium
Salmonella typhimurium [9] = assay: Suppression of Salmonella enterica serovar Typhimurium 4/74 infection-induced inflammatory response in Friesian bull intestinal ligated loop model assessed as polymorphonuclear leucocyte influx at 100 uM coadministered with bacterial challenge; format: functional, organism-based; conditions: Salmonella enterica subsp. enterica serovar Typhimurium
[10] = tested on: Salmonella enterica subsp. enterica serovar Typhimurium; assay: Inhibition of T3SS-1-mediated secretion of SopE protein in Salmonella enterica serovar Typhimurium 4/74 after 4 hrs by SDS-PAGE
Salmonella typhimurium [11] = assay: Suppression of Salmonella enterica serovar Typhimurium 4/74 infection-induced intestinal secretory response in Friesian bull intestinal ligated loop model at 100 uM coadministered with bacterial challenge; format: functional, organism-based; conditions: Salmonella enterica subsp. enterica serovar Typhimurium
[12] = tested on: Salmonella enterica subsp. enterica serovar Typhimurium; assay: Inhibition of T3SS-1-mediated secretion of SipC protein in Salmonella enterica serovar Typhimurium 4/74 at 100 uM after 4 hrs by SDS-PAGE
HeLa = assay: Toxicity against human HeLa cells at 0.1 to 10 uM after 3 hrs; format: cell-based
[13] = tested on: Salmonella enterica subsp. enterica serovar Typhimurium; assay: Inhibition of T3SS-1-mediated secretion of SipA protein in Salmonella enterica serovar Typhimurium 4/74 at 100 uM after 4 hrs by SDS-PAGE

SMILES	Activity (Salmonella typhimurium [1])	%max [2]	Activity (Salmonella typhimurium [3]) [%]	Activity [4]	Activity (Salmonella typhimurium [5])	Activity [6]	Activity [7]	Activity (Salmonella typhimurium [8])	Activity (Salmonella typhimurium [9])	Activity [10]	Activity (Salmonella typhimurium [11])	Activity [12]	Activity (HeLa)	Activity [13]
O=C(N/N=C/c1cc(Br)cc(Br)c1O)c1ccc([N+](=O)[O-])cc1	inactive	Dose-dependent effect	47	Dose-dependent effect	Active	Active	Active	Active	inactive	Dose-dependent effect	inactive	Active	Non-toxic	Active
O=C(N/N=C/c1cc(Cl)cc(Cl)c1O)c1ccccc1	inactive	Dose-dependent effect	60	Dose-dependent effect	Active	Active	Active	Active	inactive	Dose-dependent effect	inactive	Active	Non-toxic	Active
